Measured values reported in US6927234B2, “Xanthone derivatives, method of production thereof, and pharmaceutical composition containing the same” (Kuboyama Bio Ken Inc., priority 2003, dated 2005).
Read-outs that look alike come from different tables or passages of the source. Marks after values point to notes of the source that are not given here.

What was measured:
Sarcoma 180 [1] = experiment: Sarcoma 180 assay, single intraperitoneal dose (Example 7); type: in vivo, Swiss-Webster mice
Description: [table] [table] The tumor stock was a Sarcoma 180 which was started in the laboratory from an American Type Culture Collection. This stock culture has been passed at weekly intervals as an ascites in non-treated Swiss-Webster mice. The current studies were all carried out with Swiss-Webster mice obtained from Animal Technologics Ltd., Kent, Wash. To prepare the inoculum, the ascites fluid from a mouse with a 7-10 day ascites is aspirated using a sterile technique. […] This was the tumor suspension that was then injected into the mice. The final dilution was plated on trypticase soy agar to determine if it was free of contamination. One tenth (0.1 ml) of the above suspension was inoculated into the left hind leg muscle (hamstring muscle mass) of each mouse. The inoculated mice were placed into one large cage and then randomly segregated into groups of five mice. The mice were housed in shoe box cages on wood shavings with free access to water and laboratory chow. The mice were weighed on the day of inoculation, on day 7, day 10, and at time of sacrifice. Treatment of the mice was initiated the day after transplant. At the end of the observation period, the mice were sacrificed by ether anesthesia. The skin over the left hind leg was removed to expose the tumor and the leg and tumor were removed at the hip joint. Any residual skin was removed and the legs with tumors were weighed individually. Ten normal legs (right legs) were prepared in a similar manner and weighed. The mean value of the normal leg was subtracted from the weight of the leg with the tumor to give an estimate of the actual tumor weight: […]

[2] = tested on: adjuvant-induced arthritis; type: in vivo, Sprague-Dawley rats; details: gavage once per day for 7 days; for Rat paw wt.: five rats per group
Protocol: Adjuvant-induced arthritis responds to both steroids and non-steroids. The degree of inflammation is assessed by measuring differences in foot weight and/or the foot volume.
Rats weighing between 150-200 g were purchased from ATL, in Kent Wash. They were male Sprague-Dawley rats. The animals were kept individually in stainless steel cages with free access to water and feed (Harlan Teklan Rodent Diet). The light cycle was maintained at 12 hours light and 12 hours dark. The temperature was maintained at 22° C.±3° C. with a relative humidity of 40 to 70%.
[…] The test compound and hydrocortisone were given by gavage.
The test materials were delivered orally (by gavage) once per day for 7 days.
Male Sprague-Dawley rats (150-200 g) were sensitized by injecting Fruend's complete adjuvant (0.5% suspension of killed mycobacterium tuberculosis (H37RA, Difco, in mineral oil)). A 0.1 ml aliquot was administered intradermally at a plantar site on the right hind leg of each rat.
The test materials were given orally (by gavage) to each of 5 rats per treatment group once per day for 7 days. Administration of the test materials was initiated on the day of sensitization.
The left hind paw was measured just before sensitization an again on Day 7. The plantar edema inhibitory rate and the body weight gain were determined by comparison with the non-sensitized rat groups.
The paw weights for each rat group were averaged. Anti-inflammatory activity was determined by comparing paw weights calculated as follows: [formula]

Sarcoma 180 [3] = experiment: Sarcoma 180 assay, oral gavage for five days, sacrifice on Day 10 (Example 4); type: in vivo, Swiss-Webster mice; details: for % Tumor Inhibition: sacrificed Day 10, female mice
Protocol: (§1) The compound obtained in Example 1 was dissolved in ethyl alcohol at 10 mg/ml. Dilutions of this stock solution were made to 100, 10 and 1 mcg per kilo body weight of the mice. The Sarcoma 180 assay was carried out as described below.
The tumor stock was a Sarcoma 180 which was started in the laboratory from an American Type Culture Collection. This stock culture has been passed at weekly intervals as an ascites in non-treated Swiss-Webster mice.
(§2) The current studies were all carried out with Swiss-Webster mice obtained from Animal Technologics Ltd., Kent, Wash. To prepare the inoculum, the ascites fluid from a mouse with a 7-10 day ascites is aspirated using a sterile technique. Once a cell count is established, the tumor cells are diluted with normal saline or phosphate buffered saline to obtain a final concentration of 1 to 2×10^6 cells per mm^3. This is the tumor suspension that is then injected into the mice. The final dilution is plated on trypticase soy agar to determine if it is free of contamination.
One tenth (0.1 ml) of the above suspension is inoculated into the left hind leg muscle (hamstring muscle mass) of each mouse. The inoculated mice are placed into one large cage and then randomly segregated into groups of five mice. The mice are housed in shoe box cages on wood shavings with free access to water and laboratory chow. The mice are weighed on the day of inoculation, on day 7, day 10, and at time of sacrifice.
Treatment of the mice was initiated the day after transplant and then continued for five days.
At the end of the observation period, 10 days, the mice are sacrificed either by cervical dislocation or ether anesthesia. The skin over the left hind leg is removed to expose the tumor and the leg and tumor are removed at the hip joint. Any residual skin is removed and the legs with tumors are weighed individually. Ten normal legs (right legs) are prepared in a similar manner and weighed. The mean value of the normal leg is subtracted from the weight of the leg with the tumor to give an estimate of the actual tumor weight.

Sarcoma 180 [4] = experiment: Sarcoma 180 assay, oral dosing, 12-day treatment period (Example 5); type: in vivo, Swiss-Webster mice; details: 12 days treatment; for % Tumor Inhibition / Body wt. G (avg.): oral gavage
Protocol: as §1
The tumor stock was a Sarcoma 180, which was started in the laboratory from an American Type Culture Collection. This stock culture has been passed at weekly intervals as an ascites in non-treated Swiss-Webster mice.
as §2, with “7-12” for “7-10”, “sterile technique. The tumor cells are checked for viability using the trypan-blue staining” for “sterile”
One tenth (0.1 ml) of the above suspension is inoculated into the left hind leg muscle (hamstring muscle mass) of each mouse. The inoculated mice are placed into one large cage and then randomly segregated into groups of five mice. The mice are housed in shoe box cages on wood shavings with free access to water and laboratory chow. The mice are weighed on the day of inoculation, on day 7, day 12, and at time of sacrifice.
Treatment of the mice was initiated the day after transplant. The treatment period was 12 days.
At the end of the observation period, the mice are sacrificed by ether anesthesia. The skin over the left hind leg is removed to expose the tumor and the leg and tumor are removed at the hip joint. Any residual skin is removed and the legs with tumors are weighed individually. Ten normal legs (right legs) are prepared in a similar manner and weighed. The mean value of the normal leg is subtracted from the weight of the leg with the tumor to give an estimate of the actual tumor weight. [formula]

[5] = 1 mg/kg, single dose intraperitoneally
[6] = 10 mg/kg, single dose intraperitoneally
[7] = 100 mg/kg, single dose intraperitoneally

SMILES: O=c1c2ccccc2oc2ccccc12 [Compound of Example 3, Xanthone]
- % Inhibition (Sarcoma 180 [1]; [5]): 80%
- Net Tumor wt. (Sarcoma 180 [1]; [5]): 0.3 g
- % Inhibition (Sarcoma 180 [1]; [6]): 100%
- Net Tumor wt. (Sarcoma 180 [1]; [6]): 0 g
- % Inhibition (Sarcoma 180 [1]; [7]): 100%
- Net Tumor wt. (Sarcoma 180 [1]; [7]): 0 g
- evidence of tumor (Sarcoma 180 [1]; 10 and 100 mg/kg body weight, single dose intraperitoneally): no evidence of tumor
- Body weight (Sarcoma 180 [1]; Day 1, 1 mg/kg single ip): 24.2 g
- Body weight (Sarcoma 180 [1]; Day 1, 10 mg/kg single ip): 23.8 g
- Body weight (Sarcoma 180 [1]; Day 1, 100 mg/kg single ip): 23.4 g
- Body weight (Sarcoma 180 [1]; Day 7, 1 mg/kg single ip): 26 g
- Body weight (Sarcoma 180 [1]; Day 7, 10 mg/kg single ip): 26.1 g
- Body weight (Sarcoma 180 [1]; Day 7, 100 mg/kg single ip): 26.2 g
- Body weight (Sarcoma 180 [1]; Day 10, 1 mg/kg single ip): 26.2 g
- Body weight (Sarcoma 180 [1]; Day 10, 10 mg/kg single ip): 26.4 g
- Body weight (Sarcoma 180 [1]; Day 10, 100 mg/kg single ip): 26.5 g

SMILES: C[C@]12CCC(=O)C=C1CC[C@@H]1[C@@H]2[C@@H](O)C[C@@]2(C)[C@H]1CC[C@]2(O)C(=O)CO [hydrocortisone]
- % Inhibition (rat paw inflammation) ([2]; 10 mg/kg body wt.): 42%
- Rat paw wt. ([2]; 10 mg/kg body wt.): 0.98 g

SMILES: O=C(O)Cc1c2cc[nH]c2cc2c(=O)c3ccccc3oc12 [Compound of Example 1]
- % Tumor Inhibition (Sarcoma 180 [3]; 1 mcg/kg): 43%
- % Tumor Inhibition (Sarcoma 180 [3]; 10 mcg/kg): 100%
- % Tumor Inhibition (Sarcoma 180 [3]; 100 mcg/kg): 100%
- toxicity as indicated by the body weights (Sarcoma 180 [3]; any dose (1, 10, 100 mcg/kg)): No toxicity
- toxicity from final body weights (Sarcoma 180 [4]; 1 and 10 mcg/kg, oral): not toxic
- visible tumor (Sarcoma 180 [4]; 1 and 10 mcg/kg, oral): no visible tumor
- % Tumor Inhibition (Sarcoma 180 [4]; 1 mcg/kg): 98.5* %
- Body wt. G (avg.) (Sarcoma 180 [4]; 1 mcg/kg): 29.2 G
- % Tumor Inhibition (Sarcoma 180 [4]; 10 mcg/kg): 100* %
- Body wt. G (avg.) (Sarcoma 180 [4]; 10 mcg/kg): 28.7 G
- % Inhibition (rat paw inflammation) ([2]; 1 mcg/kg body wt.): 95.2%
- Rat paw wt. ([2]; 1 mcg/kg body wt.): 0.324 g
